Assay [1] deals with Nucleic Acid. The experiment in a line: Compound was evaluated for DNA (poly[dA]-poly[dT]) binding affinity. The class given is nucleic-acid assay.
In assay [2] the test system is L1210. The experiment in a line: The compound was tested for cytotoxic activity using standard L1210 cell based cytotoxicity assay. The class given is functional. The note with it: Mus musculus.

Usually IC50 stands for the concentration that gives 50% inhibition. `CN(C)CCCC(=O)Nc1ccc2c(c1)cc1c(=O)n3c(cc4cc(NC(=O)CCCN(C)C)ccc43)c(=O)n12` gave a K in assay [1] of 203000. Moreover, inhibition in assay [2] was half-maximal at 0.034 µM (IC50).

For `CN(C)CCCC(=O)Nc1csc(C(=O)Nc2ccc3c(c2)cc2c(=O)n4c(cc5cc(NC(=O)c6csc(NC(=O)CCCN(C)C)n6)ccc54)c(=O)n23)n1`, in assay [2], inhibition was half-maximal at 4 µM (IC50). This lies in the single-digit micromolar range. On the same count and under the same terms, under `CN(C)CCCC(=O)Nc1ccc(C(=O)Nc2ccc3c(c2)cc2c(=O)n4c(cc5cc(NC(=O)c6ccc(NC(=O)CCCN(C)C)cc6)ccc54)c(=O)n23)cc1` stands 7 µM. In turn, `Nc1ccc2c(c1)cc1c(=O)n3c(cc4cc(N)ccc43)c(=O)n12` yielded an IC50 in assay [2] of 30 µM. Turning to `CC(C)(C)OC(=O)Nc1ccc2c(c1)cc1c(=O)n3c(cc4cc(NC(=O)OC(C)(C)C)ccc43)c(=O)n12`, the IC50 in assay [2] was 29 µM.

The record behind these values is ChEMBL document CHEMBL1132868, “A new class of highly cytotoxic diketopiperazines” (Bioorg Med Chem Lett, 2000).
